# Measured values published in PubChem BioAssay AID1259407 (Chemical Carcinogenesis Research Information System (CCRIS), 2018).
# Calls of active or inactive are those of the source. The rule behind the calls is not given here.
# Tested on: CCRIS mutagenicity, Ames/micronucleus/aberration tests
# Experiment: CCRIS mutagenicity studies
# [1] = Test System: AMES SALMONELLA TYPHIMURIUM, Strain/Indicator: TA98, Metabolic Activation: NONE, Method: STANDARD PLATE
# [2] = Test System: AMES SALMONELLA TYPHIMURIUM, Strain/Indicator: TA98, Metabolic Activation: RAT, LIVER, S-9, AROCLOR 1254, Method: STANDARD PLATE
# [3] = Test System: AMES SALMONELLA TYPHIMURIUM, Strain/Indicator: TA100, Metabolic Activation: NONE, Method: STANDARD PLATE
# [4] = Test System: AMES SALMONELLA TYPHIMURIUM, Strain/Indicator: TA100, Metabolic Activation: RAT, LIVER, S-9, AROCLOR 1254, Method: STANDARD PLATE
# [5] = Test System: AMES SALMONELLA TYPHIMURIUM, Strain/Indicator: TA1535, Metabolic Activation: HAMSTER, LIVER, S-9, AROCLOR 1254, Method: STANDARD PLATE
# [6] = Test System: AMES SALMONELLA TYPHIMURIUM, Strain/Indicator: TA1535, Metabolic Activation: NONE, Method: STANDARD PLATE
# [7] = Test System: AMES SALMONELLA TYPHIMURIUM, Strain/Indicator: TA1537, Metabolic Activation: NONE, Method: STANDARD PLATE
structure (smiles),measurement,setting,value
O=C1C=C(N2CC2)C(=O)C(N2CC2)=C1N1CC1,mutagenic call,"Test System: UDS RODENT PRIMARY, Strain/Indicator: THY INCORP (NON-S-PHASE), Metabolic Activation: NONE, Method: LIQUID SCINTILLATION COUNTING",active; positive
N#CC1=Cc2cccc3cccc1c23,mutagenic call,[1],inactive; negative
same,mutagenic call,[2],inactive; negative
same,mutagenic call,[3],active; positive
same,mutagenic call,[4],active; positive
Cc1cccc2ccc([N+](=O)[O-])cc12,mutagenic call,"Test System: AMES SALMONELLA TYPHIMURIUM, Strain/Indicator: TA98, Metabolic Activation: NONE, Method: PREINCUBATION",active; positive
NC1CCCCC1,mutagenic call,"Test System: CHINESE HAMSTER OVARY, Strain/Indicator: CHO-K1-BH4 (HGPRT), Metabolic Activation: NONE, Method: STANDARD PLATE",inactive; negative
same,mutagenic call,"Test System: CHINESE HAMSTER OVARY, Strain/Indicator: CHO-K1-BH4 (HGPRT), Metabolic Activation: RAT, LIVER, S-9, Method: STANDARD PLATE",inactive; negative
same,mutagenic call,"Test System: UDS RODENT HEPATOCYTES, Strain/Indicator: THY INCORP (NON-S-PHASE), Metabolic Activation: NONE, Method: AUTORADIOGRAPHY",inactive; negative
CN(Cc1ccc(C(=O)O)cc1)N=O,mutagenic call,[5],inactive; negative
same,mutagenic call,[6],inactive; negative
OCCCc1ccccc1,mutagenic call,"Test System: AMES SALMONELLA TYPHIMURIUM, Strain/Indicator: TA98, Metabolic Activation: HAMSTER, LIVER, S-9, AROCLOR 1254, Method: STANDARD PLATE",inactive; negative
same,mutagenic call,[1],inactive; negative
same,mutagenic call,[2],inactive; negative
same,mutagenic call,"Test System: AMES SALMONELLA TYPHIMURIUM, Strain/Indicator: TA100, Metabolic Activation: HAMSTER, LIVER, S-9, AROCLOR 1254, Method: STANDARD PLATE",inactive; negative
same,mutagenic call,[3],inactive; negative
same,mutagenic call,[4],inactive; negative
same,mutagenic call,[5],inactive; negative
same,mutagenic call,[6],inactive; negative
same,mutagenic call,"Test System: AMES SALMONELLA TYPHIMURIUM, Strain/Indicator: TA1535, Metabolic Activation: RAT, LIVER, S-9, AROCLOR 1254, Method: STANDARD PLATE",inactive; negative
same,mutagenic call,"Test System: AMES SALMONELLA TYPHIMURIUM, Strain/Indicator: TA1537, Metabolic Activation: HAMSTER, LIVER, S-9, AROCLOR 1254, Method: STANDARD PLATE",inactive; negative
same,mutagenic call,[7],inactive; negative
same,mutagenic call,"Test System: AMES SALMONELLA TYPHIMURIUM, Strain/Indicator: TA1537, Metabolic Activation: RAT, LIVER, S-9, AROCLOR 1254, Method: STANDARD PLATE",inactive; negative
same,mutagenic call,"Test System: AMES SALMONELLA TYPHIMURIUM, Strain/Indicator: TA1538, Metabolic Activation: HAMSTER, LIVER, S-9, AROCLOR 1254, Method: STANDARD PLATE",inactive; negative
same,mutagenic call,"Test System: AMES SALMONELLA TYPHIMURIUM, Strain/Indicator: TA1538, Metabolic Activation: NONE, Method: STANDARD PLATE",inactive; negative
same,mutagenic call,"Test System: AMES SALMONELLA TYPHIMURIUM, Strain/Indicator: TA1538, Metabolic Activation: RAT, LIVER, S-9, AROCLOR 1254, Method: STANDARD PLATE",inactive; negative
same,mutagenic call,"Test System: MOUSE LYMPHOMA, Strain/Indicator: L5178Y (TK+/TK-), Metabolic Activation: NONE, Method: SUSPENSION/PLATE",inactive; negative. reevaluation of results: negative
same,mutagenic call,"Test System: MOUSE LYMPHOMA, Strain/Indicator: L5178Y (TK+/TK-), Metabolic Activation: RAT, LIVER, S-9, AROCLOR 1254, Method: SUSPENSION/PLATE",inactive; negative. reevaluation of results: negative
[O-][n+]1c2ccccc2c2ccc3cccc4ccc1c2c34,mutagenic call,"Test System: AMES SALMONELLA TYPHIMURIUM, Strain/Indicator: TA98, Metabolic Activation: NONE",inactive; negative
same,mutagenic call,"Test System: AMES SALMONELLA TYPHIMURIUM, Strain/Indicator: TA98, Metabolic Activation: S-9",active; positive
same,mutagenic call,"Test System: AMES SALMONELLA TYPHIMURIUM, Strain/Indicator: TA100, Metabolic Activation: NONE",inactive; negative
same,mutagenic call,"Test System: AMES SALMONELLA TYPHIMURIUM, Strain/Indicator: TA100, Metabolic Activation: S-9",active; positive
O=S(=O)(O)c1ccc(-c2nnc(-c3ccccn3)nc2-c2ccc(S(=O)(=O)O)cc2)cc1,mutagenic call,"Test System: Mouse lymphoma, Strain/Indicator: L5178Y (tk+/tk-), Metabolic Activation: None, Method: Suspension/plate",inactive; negative
same,mutagenic call,"Test System: Mouse lymphoma, Strain/Indicator: L5178Y (tk+/tk-), Metabolic Activation: Rat, Liver, S-9, Aroclor 1254, Method: Suspension/plate",inactive; negative
Clc1cccc(-c2nc3ccccc3o2)c1,mutagenic call,[1],inactive; negative
CS(=O)(=O)Nc1ccc(Nc2c3ccc(N=[N+]=[N-])cc3nc3cc(N=[N+]=[N-])ccc23)cc1,mutagenic call,[7],active; positive
